Assay results from US5451518A, “Purified human ceramide-activated protein kinase” (Sloan-Kettering Institute for Cancer Research, priority 1992, dated 1995).
Entries after “also recorded” stand apart in the source; their conditions may differ. Like-named read-outs stand apart in the source and are kept apart here.

Columns and labels:
[1] = system: ceramide-activated protein kinase; assay: Phosphoamino acid analysis of phosphorylated EGFR peptide; type: biochemical, human; settings: A-431
Text: Reactions were done, and phosphorylated peptide was quantified as for FIG. 2. (Left) HPLC elution profile of samples with or without the EGFR peptide. (Right) Phosphoamino acid analysis of the phosphorylated peptide purified by HPLC. Phosphorylated amino acids (Y, […]; T, threonine; S, serine) were resolved by one-dimensional thin-layer electrophoresis and identified by ninhydrin staining of carrier phosphoamino acids and autoradiography.
To determine which amino acid was phosphorylated, phosphoamino acid analysis of the peptide was done. The phosphopeptide peak obtained by HPLC was subjected to partial acid hydrolysis (1 hr at 110° C. in 6M HCl). The hydrolysates were dried, resuspended in 250 μl of water, and applied to a Dowex AG1-X8 column (Bio-Rad). Amino acids were eluted with 0.5M HCl, dried, and analyzed by thin-layer electrophoresis, according to methods well known to those skilled in the art (26). Individual phosphoamino acids were identified by ninhydrin staining of carrier phosphoamino acids and by autoradiography.

[2] = system: ceramide-activated protein kinase; settings: for effect on EGFR peptide phosphorylation (in words): A-431
[3] = system: ceramide-activated protein kinase; settings: HL-60; cholera toxin 10 nM, retinoic acid 0.5 μM, butyrate 0.5 mM
[4] = system: ceramide-activated protein kinase; settings: cited from earlier work
[5] = system: epidermal growth factor receptor (EGFR); settings: A-431 cells; cited from earlier work
[6] = system: ceramide-activated protein kinase
Method: Homogenates were centrifuged at 500×g for 5 minutes to remove nuclei and at 200,000×g for 30 minutes to prepare microsomal membranes. Membranes were resuspended into homogenizing buffer (2.2 μg membrane protein μl^-1). For assay of kinase activity, the reaction mixture contained 20 μl of microsomal membrane, 40 μl EGFR peptide (4 mg ml^-1 in 25 mM Hepes, pH 7.4) and 100 μl buffer (50 mM HEPES, pH 7.4, 20 mM MgCl2) (40). Phosphorylation was initiated at 22° C. by addition of 40 μl [γ-^32 P] ATP (100 μM final concentration) and terminated at the indicated times by addition of 40 μl of 0.5M ATP in 90% formic acid. Phosphorylated peptide was eluted from a C18 Sep pak cartridge (Millipore), lyophilized, and resolved by C18 reverse phase HPLC using a linear gradient of acetonitrile. […] All assays were performed under conditions determined as linear for time and enzyme concentration. Enzyme activity was determined from the percent conversion of substrate to product and the specific radioactivity of [γ-^32 P] ATP. […] Values (mean ± range) represent duplicate determinations from two experiments.
Activity was measured by the transfer of ^32 P from the γ-position of ATP to EGFR peptide (AA 663-681 of the EGFR). The effect of IL-1β on kinase activity was determined using microsomal membranes derived from cells stimulated with IL-1β.

[7] = system: A-431 human epidermoid carcinoma cells; settings: A-431 cells; cited from earlier work
HL-60 cells [8] = settings: cited from earlier work
HL-60 cells [9] = settings: cited from earlier work; remark: listed apart in the source

**Q.** Which phosphorylated residue [1] does the source give for Ceramide here?
**A.** exclusively on the threonine residue

**Q.** What about the lowest effective concentration ([2]; 2 minutes) of the same molecule?
**A.** 1 nM

**Q.** What about the “effect on EGFR peptide phosphorylation (in words)” value [2] of the same molecule?
**A.** Only membrane activity was enhanced

**Q.** And the “effect on EGFR peptide phosphorylation (in words)” value ([2]; listed as natural ceramide (Sigma type III))?
**A.** similarly effective

**Q.** What about the “increase in kinase activity” value ([2]; a-431 cells, 0.5 min, 0.5 µM) of the same molecule?
**A.** 2 -fold

**Q.** And the “maximal effect on EGFR peptide phosphorylation” value ([2]; a-431 cells, 2 min, 1 µM)?
**A.** 2.1 -fold of control

**Q.** What about the lowest effective concentration ([2]; abstract) of the same molecule?
**A.** 1 nM

**Q.** And the “duration of stimulation of kinase activity” value ([2]; ceramide 0.5 μM)?
**A.** at least 15 minutes

**Q.** And the “time at which stimulation of EGFR peptide phosphorylation was evident” value ([2]; ceramide 0.5 μM)?
**A.** ≤ 30 s

**Q.** And the “concentration for maximal effect” value ([2]; peptide phosphorylation, 2 minutes)?
**A.** 1 µM

**Q.** What about the EC50 ([2]; read-out: ED50 for EGFR peptide phosphorylation, 2 minutes) of the same molecule?
**A.** ~30 nM

**Q.** And the “effect on kinase activity (in words)” value [3]?
**A.** induced a similar effect

**Q.** What about the “maximum enhancement of kinase activity” value ([4]; ceramide 0.001 to 3 μM) of the same molecule?
**A.** two-fold of the control

**Q.** What about the “EGFR phosphorylation on Thr-669” value [5] of the same molecule?
**A.** induced identical effects; also recorded: induced identical phosphorylation

**Q.** With “NH2 -Glu-Leu-Val-Glu-Pro-Leu-Thr-Pro-Ser-Gly-Glu-Ala-Pro-Asn-Gln-Ala-Leu-Leu-Arg-COOH (H-ELVEPLTPSGEAPNQALLR-OH) [EGFR peptide, EGFR peptide (amino acids 663-681)]” as the molecule, how does the maximum reaction velocity ([6]; EL-4, baseline) read?
**A.** 12.5 pmol min^-1 mg^-1 of microsomal membrane protein

**Q.** What about the “Michaelis constant (Km) for EGFR peptide” value ([6]; EL-4 microsomal membrane, baseline) of the same molecule?
**A.** 0.15 mg/mL

**Q.** What about the phosphorylated residue [1] of the same molecule?
**A.** only threonine-669 served as substrate

**Q.** What about the “Apparent Km for EGFR peptide” value ([2]; A-431, 5 minutes) of the same molecule?
**A.** 0.25 mg/mL

**Q.** What about the “Apparent Vmax” value ([2]; A-431, EGFR peptide substrate) of the same molecule?
**A.** 100-200 pmol.min^-` /mg of protein^-1

**Q.** What about the “maximum velocity (V°max)” value ([4]; EGFR peptide substrate) of the same molecule?
**A.** 50 to 100 pmol per minute per milligram (pmol min^-1 mg^-1) of protein

**Q.** And the “Michaelis constant (Km) for peptide” value ([4]; nuclei-free supernates)?
**A.** 0.25 mg/mL

**Q.** With CCCCCCCCCCCCC/C=C/[C@@H](O)[C@@H](N)CO [sphingosine] as the molecule, how does the “enhancement of kinase activity” value ([6]; 10 nM to 1 μM) read?
**A.** 1.5-2.5 of control

**Q.** And the “effect on EGFR peptide phosphorylation (in words)” value [2]?
**A.** similarly effective

**Q.** What about the “stimulation of EGFR peptide phosphorylation” value ([2]; sphingosine (0.001-3 μM), 2 minutes) of the same molecule?
**A.** 1.6 fold of control

**Q.** What about the “effect on kinase activity (in words)” value [3] of the same molecule?
**A.** similarly as effective as C8-cer

**Q.** And the “EGFR phosphorylation on Thr-669” value [5]?
**A.** enhanced phosphorylation of the EGFR on Thr-669; also recorded: stimulated phosphorylation of the EGFR on Thr-669; also recorded: induced epidermal growth factor receptor (EGFR) phosphorylation on Thr-669

**Q.** What about the conversion to ceramide [7] of the same molecule?
**A.** rapidly converted to ceramide

B1: γ interferon: factor that induces monocytic differentiation of HL-60 cells (protein, UniProt P01579 24-161, looked up)
Interferon gamma: QDPYVKEAENLKKYFNAGHSDVADNGTLFLGILKNWKEESDRKIMQSQIVSFYFKLFKNFKDDQSIQKSVETIKEDMNVKFFNSNKKKRDDFEKLTNYSVTDLNVQRKAIHELIQVMAELSPAAKTGKRKRSQMLFRG
**Q.** Which “sphingomyelin degradation to ceramide / ceramide level (in words)” value (HL-60 cells [8]) does the source give for B1 here?
**A.** stimulate sphingomyelin degradation to ceramide

**Q.** What about the monocytic differentiation (HL-60 cells [9]) of the same molecule?
**A.** induce monocytic differentiation
